Read-outs that look alike come from different tables or passages of the source.
Experiments:
ER = ER (Homo sapiens (Human), UniProt P03372); assay: In-cell western blot analysis of relative ER percentage (Compounds B1-B278); assay type: cell-based; settings: ER degradation, 16 hours, read-out: ICW DC50
Procedure, shortened: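 In-cell western: after 16 h compound exposure (0.5% DMSO final), fixed and permeabilized cells are probed with anti-ER plus anti-GAPDH and near-infrared secondaries. Relative ER percentage compares treated wells against untreated and DMSO wells taken as 100%; seeding 40,000 or 10,000 cells/well.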

[1] = Cell growth assay (WST-8) (Compounds B1-B278); assay type: cell-based; settings: T47D cell line, WST-8, 4 days, read-out: Cell Growth Inhibition in T47D cell line IC50
Procedure, shortened: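 Read-out is WST-8 absorbance at 450 nm (2.5 h, 37° C) as a fraction of vehicle control, from three separate repeats. Compound exposure lasted 4 days, starting one day after plating 1500 cells/well.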

ER, sequence (P03372 whole entry): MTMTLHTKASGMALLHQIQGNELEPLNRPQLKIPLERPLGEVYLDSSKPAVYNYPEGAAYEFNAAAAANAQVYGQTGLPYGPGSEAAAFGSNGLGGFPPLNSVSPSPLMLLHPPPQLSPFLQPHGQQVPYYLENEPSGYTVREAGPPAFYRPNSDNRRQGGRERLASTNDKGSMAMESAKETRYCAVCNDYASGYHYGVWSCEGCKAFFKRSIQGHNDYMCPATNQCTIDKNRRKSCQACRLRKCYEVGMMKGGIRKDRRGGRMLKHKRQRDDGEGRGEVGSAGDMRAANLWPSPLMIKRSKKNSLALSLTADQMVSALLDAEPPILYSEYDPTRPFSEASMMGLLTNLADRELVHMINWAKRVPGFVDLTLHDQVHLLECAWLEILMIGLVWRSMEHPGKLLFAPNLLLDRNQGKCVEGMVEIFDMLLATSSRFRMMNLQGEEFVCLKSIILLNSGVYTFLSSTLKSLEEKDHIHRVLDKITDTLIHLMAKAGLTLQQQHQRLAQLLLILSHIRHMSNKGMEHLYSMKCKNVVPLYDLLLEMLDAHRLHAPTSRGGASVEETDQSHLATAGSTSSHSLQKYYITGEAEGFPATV

Compound | DC50 (ER) [µM] | IC50 ([1]; 96 h) [µM] | IC50 [1] [µM]
C[C@@H]1Cc2c([nH]c3ccccc23)[C@@H](c2cnc(N3CC4(CCC(CN5CCN6c7ccc8c(c7OC[C@@H]6C5)CN(C5CCC(=O)NC5=O)C8=O)CC4)C3)nc2)N1CC(F)F (stereo partly drawn) [Compound B263, 3-((S)-7-((2-(5-((1R,3R)-2-(2,2-difluoroethyl)-3-methyl-2,3,4,9-tetrahydro-1H-pyrido[3,4-b]indol-1-yl)pyrimidin-2-yl)-2-azaspiro[3.5]nonan-7-yl)methyl)-1-oxo-1,3,5,5a,6,7,8,9-octahydro-2H-pyrazino[1′,2′:4,5][1,4]oxazino[2,3-e]isoindol-2-yl)piperidine-2,6-dione] | 0.01 to 0.1 | 0.001 to 0.01 | 
C[C@@H]1Cc2c([nH]c3ccccc23)[C@@H](c2cnc(N3CCC4(CC3)CC(CN3CCN5c6ccc7c(c6OC[C@@H]5C3)CN(C3CCC(=O)NC3=O)C7=O)C4)nc2)N1CC(F)F (stereo partly drawn) [Compound B264, 3-((S)-7-((7-(5-((1R,3R)-2-(2,2-difluoroethyl)-3-methyl-2,3,4,9-tetrahydro-1H-pyrido[3,4-b]indol-1-yl)pyrimidin-2-yl)-7-azaspiro[3.5]nonan-2-yl)methyl)-1-oxo-1,3,5,5a,6,7,8,9-octahydro-2H-pyrazino[1′,2′:4,5][1,4]oxazino[2,3-e]isoindol-2-yl)piperidine-2,6-dione] | 0.01 to 0.1 | 0.001 to 0.01 | 
C[C@@H]1Cc2c([nH]c3ccccc23)[C@@H](c2c(F)cc(N3CCC4(CC3)CC(CN3CCN5c6ccc7c(c6OC[C@H]5C3)CN(C3CCC(=O)NC3=O)C7=O)CO4)cc2F)N1CC(F)(F)CO (stereo partly drawn) [Compound B266, 3-((5aR)-7-((8-(4-((1R,3R)-2-(2,2-difluoro-3-hydroxypropyl)-3-methyl-2,3,4,9-tetrahydro-1H-pyrido[3,4-b]indol-1-yl)-3,5-difluorophenyl)-1-oxa-8-azaspiro[4.5]decan-3-yl)methyl)-1-oxo-1,3,5,5a,6,7,8,9-octahydro-2H-pyrazino[1′,2′:4,5][1,4]oxazino[2,3-e]isoindol-2-yl)piperidine-2,6-dione] | 0.01 to 0.1 | 0.001 to 0.01 | 
C[C@@H]1CC2c3ccccc3NC2[C@@H](c2c(F)cc(N3CCC4(CC3)CC(CN3CCN5c6cc7c(cc6OC[C@H]5C3)C(=O)N(C3CCC(=O)NC3=O)C7)CO4)cc2F)N1CC(F)(F)CO (stereo partly drawn) [Compound B267, 3-((4aR)-3-((8-(4-((1R,3R)-2-(2,2-difluoro-3-hydroxypropyl)-3-methyl-2,3,4,4a,9,9a-hexahydro-1H-pyrido[3,4-b]indol-1-yl)-3,5-difluorophenyl)-1-oxa-8-azaspiro[4.5]decan-3-yl)methyl)-8-oxo-1,2,3,4,4a,5,8,10-octahydro-9H-pyrazino[1′,2′:4,5][1,4]oxazino[2,3-f]isoindol-9-yl)piperidine-2,6-dione] | > 0.1 | > 0.01 | 
C[C@@H]1Cc2c([nH]c3ccccc23)[C@@H](c2ccc(N3CCC4(CC3)CC(CN3CCN5c6ccc7c(c6OC[C@H]5C3)CN(C3CCC(=O)NC3=O)C7=O)CO4)cn2)N1CC(F)(F)F (stereo partly drawn) [Compound B268, (3S)-3-((5aR)-7-((8-(6-((1S,3R)-3-methyl-2-(2,2,2-trifluoroethyl)-2,3,4,9-tetrahydro-1H-pyrido[3,4-b]indol-1-yl)pyridin-3-yl)-1-oxa-8-azaspiro[4.5]dccan-3-yl)methyl)-1-oxo-1,3,5,5a,6,7,8,9-octahydro-2H-pyrazino[1′,2′:4,5][1,4]oxazino[2,3-e]isoindol-2-yl)piperidine-2,6-dione] | 0.01 to 0.1 | 0.001 to 0.01 | 
C[C@@H]1Cc2c([nH]c3ccccc23)[C@@H](c2ccc(N3CCC4(CC3)CC(CN3CCN5c6cc7c(cc6OC[C@@H]5C3)C(=O)N(C3CCC(=O)NC3=O)C7)CO4)cn2)N1CC(F)(F)F (stereo partly drawn) [Compound B269, 3-((4aS)-3-((8-(6-((1S,3R)-3-methyl-2-(2,2,2-trifluoroethyl)-2,3,4,9-tetrahydro-1H-pyrido[3,4-b]indol-1-yl)pyridin-3-yl)-1-oxa-8-azaspiro[4.5]decan-3-yl)methyl)-8-oxo-1,2,3,4,4a,5,8,10-octahydro-9H-pyrazino[1′,2′:4,5][1,4]oxazino[2,3-f]isoindol-9-yl)piperidine-2,6-dione] | 0.01 to 0.1 |  | 0.001 to 0.01
C[C@@H]1Cc2c([nH]c3ccccc23)[C@@H](c2c(F)cc(N3CCC4(CC3)OCC(CN3CCN5c6cc7c(cc6OC[C@@H]5C3)C(=O)N(C3CCC(=O)NC3=O)C7)CO4)cc2F)N1CC(F)(F)CO (stereo partly drawn) [Compound B270, 3-((S)-3-((9-(4-((1R,3R)-2-(2,2-difluoro-3-hydroxypropyl)-3-methyl-2,3,4,9-tetrahydro-1H-pyrido[3,4-b]indol-1-yl)-3,5-difluorophenyl)-1,5-dioxa-9-azaspiro[5.5]undecan-3-yl)methyl)-8-oxo-1,2,3,4,4a,5,8,10-octahydro-9H-pyrazino[1′,2′:4,5][1,4]oxazino[2,3-f]isoindol-9-yl)piperidine-2,6-dione] | 0.01 to 0.1 | < 0.001 | 
COc1cc(N2CCC3(CC2)OCC(CN2CCN4c5ccc6c(c5OC[C@@H]4C2)CN([C@@H]2CCC(=O)NC2=O)C6=O)CO3)ccc1[C@@H]1c2[nH]c3ccccc3c2C[C@@H](C)N1CC(F)F [Compound B271, (R)-3-((S)-7-((9-(4-((1R,3R)-2-(2,2-difluoroethyl)-3-methyl-2,3,4,9-tetrahydro-1H-pyrido[3,4-b]indol-1-yl)-3-methoxyphenyl)-1,5-dioxa-9-azaspiro[5.5]undecan-3-yl)methyl)-1-oxo-1,3,5,5a,6,7,8,9-octahydro-2H-pyrazino[1′,2′:4,5][1,4]oxazino[2,3-e]isoindol-2-yl)piperidine-2,6-dione] | 0.01 to 0.1 | < 0.001 | 
C[C@@H]1Cc2c([nH]c3ccccc23)[C@@H](c2cnc(N3CCC4(CC3)OCC(CN3CCN5c6ccc7c(c6OC[C@H]5C3)CN([C@H]3CCC(=O)NC3=O)C7=O)CO4)nc2)N1CC(F)(F)CO [Compound B272, (S)-3-((R)-7-((9-(5-((1R,3R)-2-(2,2-difluoro-3-hydroxypropyl)-3-methyl-2,3,4,9-tetrahydro-1H-pyrido[3,4-b]indol-1-yl)pyrimidin-2-yl)-1,5-dioxa-9-azaspiro[5.5]undecan-3-yl)methyl)-1-oxo-1,3,5,5a,6,7,8,9-octahydro-2H-pyrazino[1′,2′:4,5][1,4]oxazino[2,3-e]isoindol-2-yl)piperidine-2,6-dione] | 0.01 to 0.1 | < 0.001 | 
COc1cc(N2CCC3(CC2)OCC(CN2CCN4c5cc6c(cc5OC[C@H]4C2)C(=O)N(C2CCC(=O)NC2=O)C6)CO3)ccc1[C@@H]1c2[nH]c3ccccc3c2C[C@@H](C)N1CC(F)F (stereo partly drawn) [Compound B273, 3-((R)-3-((9-(4-((1R,3R)-2-(2,2-difluoroethyl)-3-methyl-2,3,4,9-tetrahydro-1H-pyrido[3,4-b]indol-1-yl)-3-methoxyphenyl)-1,5-dioxa-9-azaspiro [5.5]undecan-3-yl)methyl)-8-oxo-1,2,3,4,4a,5,8,10-octahydro-9H-pyrazino[1′,2′:4,5][1,4]oxazino[2,3-f]isoindol-9-yl)piperidine-2,6-dione] | 0.01 to 0.1 | 0.001 to 0.01 | 
COc1cc(N2CCC3(CC2)OCC(CN2CCC4(CC2)COc2c4ccc4c2CN(C2CCC(=O)NC2=O)C4=O)CO3)ccc1[C@@H]1c2[nH]c3ccccc3c2C[C@@H](C)N1CC(F)F (stereo partly drawn) [Compound B274, 3-(1′-((9-(4-((1R,3R)-2-(2,2-difluoroethyl)-3-methyl-2,3,4,9-tetrahydro-1H-pyrido[3,4-b]indol-1-yl)-3-methoxyphenyl)-1,5-dioxa-9-azaspiro[5.5]undecan-3-yl)methyl)-6-oxo-6,8-dihydro-2H,7H-spiro[furo[2,3-e]isoindole-3,4′-piperidin]-7-yl)piperidine-2,6-dione] | 0.01 to 0.1 | < 0.001 | 
C[C@@H]1Cc2c([nH]c3ccccc23)[C@@H](c2cnc(N3CC4(C3)OCC(CN3CCN5c6ccc7c(c6OC[C@H]5C3)CN([C@H]3CCC(=O)NC3=O)C7=O)CO4)nc2)N1CC(F)(F)CO [Compound B275, (S)-3-((R)-7-((2-(5-((1R,3R)-2-(2,2-difluoro-3-hydroxypropyl)-3-methyl-2,3,4,9-tetrahydro-1H-pyrido[3,4-b]indol-1-yl)pyrimidin-2-yl)-5,9-dioxa-2-azaspiro[3.5]nonan-7-yl)methyl)-1-oxo-1,3,5,5a,6,7,8,9-octahydro-2H-pyrazino[1′,2′:4,5][1,4]oxazino[2,3-e]isoindol-2-yl)piperidine-2,6-dione] | > 0.1 | > 0.01 | 
C[C@@H]1Cc2c([nH]c3ccccc23)[C@@H](c2cnc(N3CC4(C3)OCC(CN3CCN5c6cc7c(cc6OC[C@@H]5C3)C(=O)N(C3CCC(=O)NC3=O)C7)CO4)nc2)N1CC(F)(F)CO (stereo partly drawn) [Compound B276, 3-((S)-3-((2-(5-((1R,3R)-2-(2,2-difluoro-3-hydroxypropyl)-3-methyl-2,3,4,9-tetrahydro-1H-pyrido[3,4-b]indol-1-yl)pyrimidin-2-yl)-5,9-dioxa-2-azaspiro[3.5]nonan-7-yl)methyl)-8-oxo-1,2,3,4,4a,5,8,10-octahydro-9H-pyrazino[1′,2′:4,5][1,4]oxazino[2,3-f]isoindol-9-yl)piperidine-2,6-dione] | > 0.1 | > 0.01 | 
COc1cc(N2CC3(CCC(CN4CCN5c6ccc7c(c6OC[C@H]5C4)CN(C4CCC(=O)NC4=O)C7=O)CO3)C2)ccc1[C@@H]1c2[nH]c3ccccc3c2C[C@@H](C)N1CC(F)F (stereo partly drawn) [Compound B277, 3-((5aR)-7-((2-(4-((1R,3R)-2-(2,2-difluoroethyl)-3-methyl-2,3,4,9-tetrahydro-1H-pyrido[3,4-b]indol-1-yl)-3-methoxyphenyl)-5-oxa-2-azaspiro[3.5]nonan-7-yl)methyl)-1-oxo-1,3,5,5a,6,7,8,9-octahydro-2H-pyrazino[1′,2′:4,5][1,4]oxazino[2,3-e]isoindol-2-yl)piperidine-2,6-dione] | 0.01 to 0.1 | 0.001 to 0.01 | 

From patent US20260007681A1, “INDOLE DERIVATIVES AS ESTROGEN RECEPTOR DEGRADERS” (REGENTS OF THE UNIVERSITY OF MICHIGAN, priority 2022, published 2026)
